# What was measured:
# [1] = tested on: APTK-OVA tumors; assay: Adoptive transfer of UA-conditioned OT-1 T cells into Rag1−/− mice; assay type: in vivo, mouse
# Protocol: For adoptive cell transfer, purified splenic T cell from OT1 mice were isolated and activated using αCD3/αCD28 stimulation beads for 48 h. After magnetic bead removal, 1×10^6 T of activated T cell were intravenously injected into Rag1−/− recipients. To study survival of transferred T cells, stimulated OT-1 T cells were injected into mice without tumors. Subsequently, after 7 days, spleens were isolated and splenocytes were stained for the CD8+ subsets as described below. To understand antitumor immunity conferred by transferred OT-1 lymphocytes, cells were injected into mice carrying APTK-OVA tumors 10 days after subcutaneous organoid transplantation. Tumor growth was assessed as described above. Mice were kept under regular chow food for the T cell adoptive transfer experiment and sacrificed collectively when maximum tumor diameter extended 1.5 cm.
# Tumors were minced and digested with Tumor & Tissue Dissociation Reagent (BD Horizon) for 30 min. The remaining organ pieces were filtered through a 70 µm cell strainer. Cells were then washed with PBS 1% BSA and 2 mM EDTA. Immune cells were enriched on a 30%/40%/75% Percoll gradient after a 1700 rpm 17 min centrifugation. Then, tumor immune filtrates or activated T cells were stained with Fixable Viability Dye-eF780 (65-0865-14; eBioscience), αCD45-FITC (30-F11; 11-0451-85; eBioscience), αCD11b-BV650 (M1/70; 56340; BD) α-CD11c-BV785 (HL3; 563735; BD), aLy6G-BV605 (53-6.7; 563005; BD), aLy6C-AF700 (HK1.4; 128024; Biolegend), aF4/80-PE (BM8; 12-4801-82, eBioscience), aPD-L1-PECy7 (MIH5; 25-5982-80, eBioscience); or with Fixable Viability Dye-eF780 (ebioscience), αCD45-BV786 (30-F11; 564225; BD), αCD4-BUV496 (GK1.5; 564667; BD), αCD8-BV605 (100744; Biolegend), aPD1-APC (J43; 17-9985-82; eBioscience), aTIM-3-PECy7 (RMT3-23; 119715; Biolegend), aCTLA4-PE (UC10-4B9; 106305; Biolegend) and aLag3-BV421 (C9B7W; 125221, Biolegend); or with Fixable Viability Dye-eF780 (eBioscience), αCD4-FITC (H129.19; 553650; BD), αCD8-APC (53-6.7; 17-0081-83; eBioscience), αCD44-AF400 (IM7; 103026; Biolegend), αCD62L-BV785 (MEL-14; 104440; Biolegend), αSca-1-PerCP-Cy5.5 (D7; 45-5981-82; eBioscience), αCD95-PE (Jo2; 554258; BD); or with Fixable Viability Dye-eF780 (eBioscience), αCD8-BV650 (53-6.7; 563234; BD), αCD4-BUV496 (GK1.5; 564667; BD), αCD127-APC (A7R34; 17-1271-82; eBioscience), αCD95-FITC (SA367H8;152605; Biolegend), αCD44-AF400 (IM7; 103026; Biolegend), αCD62L-BV785 (MEL-14; 104440; Biolegend), αSca-1-PerCP-Cy5.5 (D7; 45-5981-82; eBioscience) followed by intracellular staining of aTCF1-PE (S33-966; 564217; BD), or PGC-1α (sc-518025; D-5; santa cruz), or aCyclinD1 (MA5-28534, DCS-6; Invitrogen) with transcription factor buffer set kit (BD Biosciences). To study cytokine expression, tumor immune infiltrates were stimulated ex vivo with 20 ng/mL PMA and […] Ionomycin (Sigma) for 3 h in T cell activation medium with Brefeldin A (Biolegend). For T cell in vitro activation experiments over several days, Brefeldin A was added to the medium for the last 3 hours. Cells were then stained with Fixable Viability Dye-eF780 (eBioscience), αCD8-PeCy7 (53.6-7; 100722; Biolegend), αCD4-AF700 (GK1.5; 100429; Biolegend), and intracellular staining for cytokine assessment was performed with BD Cytofix/Cytoperm (BD) with 20 min fixation and overnight incubation with αGranzyme B-FITC (GB11; 515403; Biolegend), αIFNγ-PerCPCy5.5 (XMG1.2; 45-7311-82; eBioscience) and αTNFa-BV711 (MP6-XT22; 563944; BD). For flow cytometric analysis of mitochondria and lysosomes 500 μl of Mitotracker Red (200 nM; ThermoFisher) or Lysotracker Red DND-99 (75 nM; ThermoFisher) were applied followed by surface staining. To study changes in mitochondrial membrane potential, Mitoprobe TMRM kit (ThermoFisher) was used according to the manufacturer's instructions. Cell proliferation was assessed by CellTrace Violet (Invitrogen, C34557) at a concentration of […] according to manufacturer's instructions. […]
# [2] = tested on: mouse T lymphocytes; assay: Mitochondrial content (Mitotracker positive cells) in mouse T lymphocytes; assay type: cell-based; settings: 2 μM, 72 h
# Protocol: Splenic murine T cells were isolated from mice aged 6-20 weeks by negative selection with EasySep mouse T cell isolation kit (Stem cell) according to the manufacturer's instructions. T cell activation was initiated using CD3/CD28 activation beads (11456D; ThermoFisher Scientific) at a ratio of 25 μl dynabeads per 0.5×10^6 T-cells. Cells were activated with test compounds at 2 μM or DMSO in T cell activation Medium (RPMI (ThermoFisher Scientific) 10% FBS (South America origin), 10 mM Hepes (Sigma), 1× Non-Essential Amino Acid, 1 mM Sodium Pyruvate, 50 μM β-Mercaptoethanol, 100 U/ml penicillin, 100 μg/ml streptomycin and 2 mM Glutamax (ThermoFisher Scientific) for 72 h. For subsequent analysis, activating beads were magnetically removed prior staining.
# For flow cytometric analysis of mitochondria 500 μl of Mitotracker Red (200 nM; ThermoFisher) was applied followed by surface staining.
# Cell doublets and cells debris were excluded from the analysis by gating FSC-A vs FSC-H followed by SSC-A vs SSC-H dot plots and FSC-A vs SSC-A dot plots, respectively. eFluor 780 highly positive cells, i.e, dead cells, were gated out of the analysis. Data was acquired on Canto II (BD), Fortessa (BD) and Aurora (Cytek) cytometers and analyzed with FlowJo.
SMILES,CD62L expression in CD8+ TIL ([1]; UA-T cell transfer),expression of CD44 in CD8+ TIL ([1]; UA-T cell transfer),number of TCF1HiCD8+ tumor infiltrating T cells ([1]; UA-T cell transfer),suppression of APTK-OVA tumors ([1]; UA-conditioned vs control OT-I T cells),Tim3HiPD1Hi terminally exhausted CD8+ T cells in the TME ([1]; UA-pretreated T cells),increase in the percentage of Mitotracker positive cells vs DMSO [2] [%],percentage of Mitotracker positive cells ([2]; DMSO 44%) [%]
"O=c1oc2cc(O)ccc2c2ccc(O)cc12 [UA, Urolithin A]",remained unchanged,lower expression,higher number,more substantial tumor suppression,less,,
"O=c1oc2cc(O)ccc2c2ccc(OC3CCOCC3)cc12 [compound 33, 3-hydroxy-8-((tetrahydro-2H-pyran-4-yl)oxy)-6H-benzo[c]chromen-6-one]",,,,,,19,52.5

# From patent US20240139149A1, “THERAPEUTIC USES OF UROLITHIN DERIVATIVES” (Vandria SA, priority 2022, published 2024)
